# From US8853258B2, “C-linked hydroxamic acid derivatives useful as antibacterial agents” (Pfizer Inc., priority 2009, dated 2014)
# Where two headings read alike, the source gives them in different places.
# Legend:
# [1] = molecular target: Pseudomonas aeruginosa LpxC enzyme (Pseudomonas aeruginosa (strain ATCC 15692 / DSM 22644 / CIP 104116 / JCM 14847 / LMG 12228 / 1C / PRS 101 / PAO1), UniProt P47205); test: IC50 Assay, LpxC Enzyme from P. aeruginosa (PA LpxC Enzyme IC50); assay type: biochemical
# How it was run: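 Reaction run 1 h then stopped with 1N HCl. Conversion measured by RapidFire high-throughput mass spectrometry. IC50 derived from percent conversion relative to a no-enzyme control.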
# [2] = tested on: Acinetobacter baumanii/haemolyticus: Multidrug-resistant clinical isolate (AB-3167); test: MIC determination (CLSI), AB-3167; assay type: cell-based; settings: for MIC: Acinetobacter baumannii, Table 3, read-out: AB-3167 MIC
# How it was run: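 Multidrug-resistant clinical isolate AB-3167 (A. baumannii/haemolyticus) tested for minimum inhibitory concentration following CLSI dilution susceptibility standards M7-A7 and M100-S18.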
# [3] = tested on: Escherichia coli EC-1: VOGEL, mouse virulent; test: MIC determination (CLSI), EC-1; assay type: cell-based; settings: for MIC: Escherichia coli, read-out: EC-1 MIC
# How it was run: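 E. coli Vogel, a mouse-virulent strain (EC-1), was tested. MICs were set by dilution susceptibility testing per CLSI standards M7-A7/M100-S18.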
# [4] = tested on: Klebsiella pneumoniae: Ciprofloxacin-resistant isolate, ESBL, clinical isolate (KP-3700); test: MIC determination (CLSI), KP-3700; assay type: cell-based
# How it was run: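 MIC measured by broth dilution according to CLSI M7-A7 and M100-S18 standards. Test organism was a ciprofloxacin-resistant, ESBL-expressing clinical isolate.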
# [5] = tested on: Pseudomonas aeruginosa UI-18: Wild-type (PA-7); test: MIC determination (CLSI), PA-7; assay type: cell-based; settings: for MIC: Pseudomonas aeruginosa, Table 3, read-out: PA-7 MIC
# How it was run: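 MIC by dilution method per CLSI M7-A7 and M100-S18 guidelines. Strain: wild-type Pseudomonas aeruginosa UI-18.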
# [6] = Table 3, read-out: PA LpxC enzyeme IC^50
# [7] = P. aeruginosa LpxC enzyme, read-out: PA LpxC enzyeme IC50
# [8] = Acinetobacter baumanii/haemolyticus multidrug-resistant clinical isolate AB-3167
# [9] = Escherichia coli EC-1 VOGEL, mouse virulent
# [10] = Pseudomonas aeruginosa UI-18 wild-type PA-7
Compound,"IC50 [1, 6] [nM]",MIC [2] [µg/mL],MIC [3] [µg/mL],KP-3700 MIC [4],MIC [5] [µg/mL],"IC50 [1, 7] [nM]","AB-3167 MIC [2, 8]","EC-1 MIC [3, 9] [µg/mL]","PA-7 MIC [5, 10] [µg/mL]",AB-3167 MIC ([2]; Acinetobacter baumanii/haemolyticus AB-3167),EC-1 MIC ([3]; Escherichia coli EC-1) [µg/mL],PA-7 MIC ([5]; Pseudomonas aeruginosa UI-18 (PA-7)) [µg/mL]
"CC(CCc1ccc(OCc2ccc(-n3cccn3)cc2)cc1)(C(=O)NO)S(C)(=O)=O (stereo not shown) [Example 304, N-hydroxy-2-methyl-2-(methylsulfonyl)-4-(4-{[4-(1H-pyrazol-1-yl)benzyl]oxy}phenyl)butanamide]",1.99,32,4,16 µg/mL,16,–,–,–,–,–,–,–
C[C@@](CCc1ccc(-c2ccc(C(=O)CO)cc2)cc1)(C(=O)NO)S(C)(=O)=O [Example 186],–,–,–,4 µg/mL,–,0.238,≧64 mg/L,2,1,–,–,–
"Cc1ccc(OCc2noc(COc3ccc(CCC(C)(C(=O)NO)S(C)(=O)=O)cc3)n2)cc1 (stereo not shown) [Example 286, N-hydroxy-2-methyl-4-[4-({3-[(4-methylphenoxy)methyl]-1,2,4-oxadiazol-5-yl}methoxy)phenyl]-2-(methylsulfonyl)butanamide]",11.9,≥ 64,32,≧64 mg/L,≥ 64,–,–,–,–,–,–,–
C[C@@](CCc1ccc(-c2ccc(OCCCN3CCOCC3)cc2)cc1)(C(=O)NO)S(C)(=O)=O [Example 179],–,–,–,2 µg/mL,–,0.172,2 µg/mL,0.125,2,–,–,–
"CC(CCc1ccc(OCC2CCOCC2)cc1)(C(=O)NO)S(C)(=O)=O (stereo not shown) [Example 261, N-hydroxy-2-methyl-2-(methylsulfonyl)-4-[4-(tetrahydro-2H-pyran-4-ylmethoxy)phenyl]butanamide]",4.93,≥ 64,≥ 64,≧64 mg/L,32,–,–,–,–,–,–,–
CC(=O)c1ccc(-c2ccc(CCC(C)(C(=O)NO)S(C)(=O)=O)cc2)cc1F (stereo not shown) [Example 184],–,–,–,2 µg/mL,–,0.155,32 µg/mL,4,0.5,–,–,–
"Cc1nncn1-c1ccc(OCCOc2ccc(CCC(C)(C(=O)NO)S(C)(=O)=O)cc2)cc1 (stereo not shown) [Example 290, N-hydroxy-2-methyl-2-(methylsulfonyl)-4-(4-{2-[4-(3-methyl-4H-1,2,4-triazol-4-yl)phenoxy]ethoxy}phenyl)butanamide]",3.56,≥ 64,8,32 µg/mL,≥ 64,–,–,–,–,–,–,–
C[C@@](CCc1ccc(-c2ccc(C(=O)N3CCC[C@@H]3CO)cc2)cc1)(C(=O)NO)S(C)(=O)=O [Example 216],–,–,–,≧64 mg/L,–,4.02,–,–,–,≧64 mg/L,32,32
